# Counter-ions that a name gives are not always drawn. Bridge positions count the residues as written; N and C are the ends. Square brackets hold non-standard residues; d marks the D form. Peptide text beside a SMILES is read from it. * marks the point of attachment. ξ: configuration not given here. pTerphenylCO(4''-OnC5H11) = CCCCCOc1ccc(-c2ccc(-c3ccc(C(=O)*)cc3)cc2)cc1; Pro(3S-OH,4S-Me) = C[C@H]1CN[C@H](C(=O)O)[C@H]1O; hTyr(3R-OH) = N[C@H](C(=O)O)[C@H](O)Cc1ccc(O)cc1; Hyp = O=C(O)[C@@H]1C[C@@H](O)CN1; Thr(3ξ) = CC(O)[C@H](N)C(=O)O; dOrn = NCCC[C@@H](N)C(=O)O; Orn = NCCC[C@H](N)C(=O)O; Dab = NCC[C@H](N)C(=O)O; ξDap = NCC(N)C(=O)O
# Tests used:
# Details in all cases: in vitro
# Histoplasma capsulatum = system: Histoplasma capsulatum
# C. parapsilosis = system: C. parapsilosis
# A. fumigatus = system: A. fumigatus
# C. albicans = system: C. albicans
SMILES,Minimal Inhibitory Concentration MIC Histoplasma capsulatum (Histoplasma capsulatum) [µg/mL],Minimal Inhibitory Concentration MIC C. parapsilosis (C. parapsilosis) [µg/mL],Minimal Inhibitory Concentration MIC A. fumigatus (A. fumigatus) [µg/mL],Minimal Inhibitory Concentration MIC C. albicans (C. albicans) [µg/mL]
"CCCCCOc1ccc(-c2ccc(-c3ccc(C(=O)N[C@H]4CCNC(=O)[C@@H]5[C@@H](O)[C@@H](C)CN5C(=O)[C@H](C(C)O)NC(=O)[C@H]([C@H](O)Cc5ccc(O)cc5)NC(=O)[C@@H]5C[C@@H](O)CN5C(=O)[C@H](C(C)O)NC4=O)cc3)cc2)cc1 (stereo partly drawn) [Compound E1-6] ({pTerphenylCO(4''-OnC5H11)}-[Dab][Thr(3ξ)][Hyp][hTyr(3R-OH)][Thr(3ξ)][Pro(3S-OH,4S-Me)]; lactam 1-C)",0.078,>20,20,0.039
"CCCCCOc1ccc(-c2ccc(-c3ccc(C(=O)N[C@H]4CCN(C)NC(=O)[C@@H]5[C@@H](O)[C@@H](C)CN5C(=O)[C@H](C(C)O)NC(=O)[C@H]([C@H](O)Cc5ccc(O)cc5)NC(=O)[C@@H]5C[C@@H](O)CN5C(=O)[C@H](C(C)O)NC4=O)cc3)cc2)cc1 (single isomer, unassigned) [E2-11(a) HCl salt]",0.02,0.156,0.078,0.001
CCCCCOc1ccc(-c2ccc(-c3ccc(C(=O)N[C@H]4CCN(CC)NC(=O)[C@@H]5[C@@H](O)[C@@H](C)CN5C(=O)[C@H](C(C)O)NC(=O)[C@H]([C@H](O)Cc5ccc(O)cc5)NC(=O)[C@@H]5C[C@@H](O)CN5C(=O)[C@H](C(C)O)NC4=O)cc3)cc2)cc1 (stereo partly drawn) [E2-11(b)],0.02,0.156,0.312,0.001
CCCCCOc1ccc(-c2ccc(-c3ccc(C(=O)NC4CS(=O)(=O)CCNC(=O)[C@@H]5[C@H](O)[C@@H](C)CN5C(=O)[C@H]([C@@H](C)O)NC(=O)[C@H]([C@H](O)Cc5ccc(O)cc5)NC(=O)[C@@H]5C[C@@H](O)CN5C(=O)[C@H]([C@@H](C)O)NC4=O)cc3)cc2)cc1 (stereo partly drawn) [Compound E3-6],10,>20,20,10
"CCCCCOc1ccc(-c2ccc(-c3ccc(C(=O)N[C@@H]4CCCNC(=O)[C@@H]5[C@@H](O)[C@@H](C)CN5C(=O)[C@H](C(C)O)NC(=O)[C@H]([C@H](O)Cc5ccc(O)cc5)NC(=O)[C@@H]5C[C@@H](O)CN5C(=O)[C@H](C(C)O)NC4=O)cc3)cc2)cc1 (stereo partly drawn) [Compound E1-4] ({pTerphenylCO(4''-OnC5H11)}-[dOrn][Thr(3ξ)][Hyp][hTyr(3R-OH)][Thr(3ξ)][Pro(3S-OH,4S-Me)]; lactam 1-C)",5.0,>20,20.0,1.25
CCCCCOc1ccc(-c2ccc(-c3ccc(C(=O)N[C@H]4CCN(CCC)NC(=O)[C@@H]5[C@@H](O)[C@@H](C)CN5C(=O)[C@H](C(C)O)NC(=O)[C@H]([C@H](O)Cc5ccc(O)cc5)NC(=O)[C@@H]5C[C@@H](O)CN5C(=O)[C@H](C(C)O)NC4=O)cc3)cc2)cc1 (stereo partly drawn) [E2-11(c)],0.312,1.25,0.156,0.312
"CCCCCOc1ccc(-c2ccc(-c3ccc(C(=O)N[C@H]4CCN(C(=O)C(N)CN)NC(=O)[C@@H]5[C@@H](O)[C@@H](C)CN5C(=O)[C@H](C(C)O)NC(=O)[C@H]([C@H](O)Cc5ccc(O)cc5)NC(=O)[C@@H]5C[C@@H](O)CN5C(=O)[C@H](C(C)O)NC4=O)cc3)cc2)cc1 (single isomer, unassigned) [E2-13 (isomer 2)]",10,20,1.25,0.156
"CCCCCOc1ccc(-c2ccc(-c3ccc(C(=O)NC4CNC(=O)[C@@H]5[C@@H](O)[C@@H](C)CN5C(=O)[C@H](C(C)O)NC(=O)[C@H]([C@H](O)Cc5ccc(O)cc5)NC(=O)[C@@H]5C[C@@H](O)CN5C(=O)[C@H](C(C)O)NC4=O)cc3)cc2)cc1 (stereo partly drawn) [Compound E1-7] ({pTerphenylCO(4''-OnC5H11)}-[ξDap][Thr(3ξ)][Hyp][hTyr(3R-OH)][Thr(3ξ)][Pro(3S-OH,4S-Me)]; lactam 1-C)",0.625,>20,0.625,0.312
"CCCCCOc1ccc(-c2ccc(-c3ccc(C(=O)N[C@H]4CCN(C(=O)C(N)CN)NC(=O)[C@@H]5[C@@H](O)[C@@H](C)CN5C(=O)[C@H](C(C)O)NC(=O)[C@H]([C@H](O)Cc5ccc(O)cc5)NC(=O)[C@@H]5C[C@@H](O)CN5C(=O)[C@H](C(C)O)NC4=O)cc3)cc2)cc1 (single isomer, unassigned) [E2-13 (isomer 1)]",1.25,2.5,0.625,0.078
CCCCCOc1ccc(-c2ccc(-c3ccc(C(=O)N[C@H]4CCNNC(=O)[C@@H]5[C@@H](O)[C@@H](C)CN5C(=O)[C@H](C(C)O)NC(=O)[C@H]([C@H](O)Cc5ccc(O)cc5)NC(=O)[C@@H]5C[C@@H](O)CN5C(=O)[C@H](C(C)O)NC4=O)cc3)cc2)cc1 (stereo partly drawn) [E2-10(b)],0.156,0.156,0.156,0.01
CCCCCOc1ccc(-c2ccc(-c3ccc(C(=O)N[C@@H]4CS(=O)(=O)CCNC(=O)[C@@H]5[C@H](O)[C@@H](C)CN5C(=O)[C@H]([C@@H](C)O)NC(=O)[C@H]([C@H](O)Cc5ccc(O)cc5)NC(=O)[C@@H]5C[C@@H](O)CN5C(=O)[C@H]([C@@H](C)O)NC4=O)cc3)cc2)cc1 [Compound E3-7],>20,>20,>20,>20
"CCCCCOc1ccc(-c2ccc(-c3ccc(C(=O)N[C@H]4CCN(C)NC(=O)[C@@H]5[C@@H](O)[C@@H](C)CN5C(=O)[C@H](C(C)O)NC(=O)[C@H]([C@H](O)Cc5ccc(O)cc5)NC(=O)[C@@H]5C[C@@H](O)CN5C(=O)[C@H](C(C)O)NC4=O)cc3)cc2)cc1 (single isomer, unassigned) [E2-11(a) TFA salt]",0.78,0.156,0.039,0.005
"CCCCCOc1ccc(-c2ccc(-c3ccc(C(=O)N[C@H]4CCCCNC(=O)[C@@H]5[C@@H](O)[C@@H](C)CN5C(=O)[C@H](C(C)O)NC(=O)[C@H]([C@H](O)Cc5ccc(O)cc5)NC(=O)[C@@H]5C[C@@H](O)CN5C(=O)[C@H](C(C)O)NC4=O)cc3)cc2)cc1 (stereo partly drawn) [Compound E1-5] ({pTerphenylCO(4''-OnC5H11)}-K[Thr(3ξ)][Hyp][hTyr(3R-OH)][Thr(3ξ)][Pro(3S-OH,4S-Me)]; lactam 1-C)",0.156,>20,2.5,0.02
CCCCCOc1ccc(-c2ccc(-c3ccc(C(=O)N[C@H]4CCN(C(=O)CN)NC(=O)[C@@H]5[C@@H](O)[C@@H](C)CN5C(=O)[C@H](C(C)O)NC(=O)[C@H]([C@H](O)Cc5ccc(O)cc5)NC(=O)[C@@H]5C[C@@H](O)CN5C(=O)[C@H](C(C)O)NC4=O)cc3)cc2)cc1 (stereo partly drawn) [Compound E2-12],0.039,0.312,0.156,0.01
"CCCCCOc1ccc(-c2ccc(-c3ccc(C(=O)N[C@H]4CCCNC(=O)[C@@H]5[C@@H](O)[C@@H](C)CN5C(=O)[C@H](C(C)O)NC(=O)[C@H]([C@H](O)Cc5ccc(O)cc5)NC(=O)[C@@H]5C[C@@H](O)CN5C(=O)[C@H](C(C)C)NC4=O)cc3)cc2)cc1 (stereo partly drawn) [Compound E4-6] ({pTerphenylCO(4''-OnC5H11)}-[Orn]V[Hyp][hTyr(3R-OH)][Thr(3ξ)][Pro(3S-OH,4S-Me)]; lactam 1-C)",>20,>20,>20,1.25

# From US6939946B2, “Ring modified cyclic peptide analogs” (Eli Lilly and Company, priority 1998, dated 2005)
